Data as given in patent publication US20190159450A1, “PYRIDINE-BASED COMPOUND INCLUDING ISOXAZOLINE RING AND USE THEREOF AS HERBICIDE” (MOGHU RESEARCH CENTER LTD., priority 2016, published 2019).

Legend:
Format in all cases: in vivo
maize [1] = experiment: Herbicidal activity test, pre-weeds emergence treatment (crop damage); settings: assessed 2 to 3 weeks after spraying, scale 0-10 (0: no effect, 10: complete death)
Procedure: (§1) A rectangular plastic pot with a surface area of 300 cm^2 was filled with sandy loam soil and mixed soil at a ratio of 1:1, and four kinds of weeds including Quamoclit pennata, Abutilon theophrasti Medicus, and Aeschynomene indica, Xanthium strumarium were sown therein. In another pot made in the same way, three kinds of crop seeds including maize, wheat, and rice were sown. The pots were watered and one day later, a medicament was sprayed thereon. The spraying was performed by using a track sprayer (R&D Sprayer, USA) equipped with Teejet 8002EVS (Spraying Systems Co., USA) nozzle, and the spray amount was controlled to be 1000 L/ha. A spray solution was prepared by dissolving the compound of each example or a control material in acetone, and then, adding the same amount of 0.1% (v/v) tween 20 aqueous solution thereto. The spray amount was 200 g/ha. The pots were placed in a greenhouse in which the temperature was maintained at 25° C. to 30° C. during the day and 15° C. to 25° C. during the night, and was regularly watered. After 2 to 3 weeks from the spraying of the compounds or the control material, the efficacy and the damages on each weed and each crop were assessed according to the scale of 0-10 (0: no effect, 10: complete death) scale and the results are shown in Table 3 below.
(§2) Pots for crops and weeds were prepared in the same manner as the test method illustrated in Table 3, and three kinds of weeds selected from Quamoclit pennata, Abutilon theophrasti Medicus, and Aeschynomene indica, Xanthium strumarium were used.

rice [2] = experiment: as above; settings: assessed 2 to 3 weeks after spraying, scale 0-10 (0: no effect, 10: complete death)
Procedure: as §1, §2

wheat [3] = experiment: as above; settings: assessed 2 to 3 weeks after spraying, scale 0-10 (0: no effect, 10: complete death)
Procedure: as §1, §2

[4] = test system: Abutilon theophrasti Medicus; experiment: Herbicidal activity test, pre-weeds emergence treatment; settings: assessed 2 to 3 weeks after spraying, scale 0-10 (0: no effect, 10: complete death)
Procedure: as §1, §2

Aeschynomene indica [5] = experiment: as above; settings: assessed 2 to 3 weeks after spraying, scale 0-10 (0: no effect, 10: complete death)
Procedure: as §1, §2

Quamoclit pennata [6] = experiment: as above; settings: assessed 2 to 3 weeks after spraying, scale 0-10 (0: no effect, 10: complete death)
Procedure: as §1, §2

Xanthium strumarium [7] = experiment: as above; settings: assessed 2 to 3 weeks after spraying, scale 0-10 (0: no effect, 10: complete death)
Procedure: as §1, §2

maize [8] = experiment: Herbicidal activity test, post-weeds emergence treatment (crop damage); settings: assessed after 2 to 3 weeks, 0: no effect, 10: complete death
Procedure: as §1
(§3) Pots for crops and weeds were prepared in the same manner as in Experimental Example 1, and then, when the crops and the weeds were raised up to 2 weeks roughly on a third-leaf stage, the compounds and the control material were sprayed thereon in the same manner as described above. The spray amount was 200 g/ha. After 2 to 3 weeks from the spraying of the test substance or the control substance, the efficacy and the damages on each weed and each crop were assessed according to the scale of 0-10 (0: no effect, 10: complete death) scale.
as §2, with “5,” for “3,”, “four” for “three”, “used. The spray amount was 200 g/ha for crops and 50 g/ha for weeds.” for “used.”

rice [9] = experiment: as above; settings: assessed after 2 to 3 weeks, 0: no effect, 10: complete death
Procedure: as §1, §3
as §2, with “5,” for “3,”, “four” for “three”, “used. The spray amount was 200 g/ha for crops and 50 g/ha for weeds.” for “used.”

wheat [10] = experiment: as above; settings: assessed after 2 to 3 weeks, 0: no effect, 10: complete death
Procedure: as §1, §3
as §2, with “5,” for “3,”, “four” for “three”, “used. The spray amount was 200 g/ha for crops and 50 g/ha for weeds.” for “used.”

[11] = test system: Abutilon theophrasti Medicus; experiment: Herbicidal activity test, post-weeds emergence treatment; settings: assessed after 2 to 3 weeks, 0: no effect, 10: complete death
Procedure: as §1, §3
as §2, with “5,” for “3,”, “four” for “three”, “used. The spray amount was 200 g/ha for crops and 50 g/ha for weeds.” for “used.”

Aeschynomene indica [12] = experiment: as above; settings: assessed after 2 to 3 weeks, 0: no effect, 10: complete death
Procedure: as §1, §3
as §2, with “5,” for “3,”, “four” for “three”, “used. The spray amount was 200 g/ha for crops and 50 g/ha for weeds.” for “used.”

Quamoclit pennata [13] = experiment: as above; settings: assessed after 2 to 3 weeks, 0: no effect, 10: complete death
Procedure: as §1, §3
as §2, with “5,” for “3,”, “four” for “three”, “used. The spray amount was 200 g/ha for crops and 50 g/ha for weeds.” for “used.”

Xanthium strumarium [14] = experiment: as above; settings: assessed after 2 to 3 weeks, 0: no effect, 10: complete death
Procedure: as §1, §3
as §2, with “5,” for “3,”, “four” for “three”, “used. The spray amount was 200 g/ha for crops and 50 g/ha for weeds.” for “used.”

[15] = spray amount 200 g/ha for crops, Table 6
[16] = spray amount 50 g/ha for weeds, Table 6

CCOC(=O)c1nc(C2CC(Br)=NO2)cc(N)c1Cl (centres unmarked) [Compound 73, ethyl 4-amino-6-(3-bromo-4,5-dihydroisoxazol-5-yl)-3-chloropicolinate] was tested, and the “PRE ZEAMX (maize), damage score” value (maize [1]; Table 4, 200 g/ha) was 0, the “PRE ORYSA (rice), damage score” value (rice [2]; Table 4, 200 g/ha) was 0 and the “PRE TRZAW (wheat), damage score” value (wheat [3]; Table 4, 200 g/ha) was 0. The “PRE ABUTH (Abutilon theophrasti Medicus), efficacy score” value (from here on “PRE ABUTH”) ([4]; Table 4, 200 g/ha) was 10, the “PRE AESIN (Aeschynomene indica), efficacy score” value (“PRE AESIN (Aeschynomene indica)” below) (Aeschynomene indica [5]; Table 4, 200 g/ha) was 10 and the “PRE IPOAN (Quamoclit pennata), efficacy score” value (from here on “PRE IPOAN (Quamoclit pennata)”) (Quamoclit pennata [6]; Table 4, 200 g/ha) was 6. The “PRE XANST (Xanthium strumarium), efficacy score” value (“PRE XANST (Xanthium strumarium)” for short) (Xanthium strumarium [7]; Table 4, 200 g/ha) was 9, the “ZEAMX (maize) damage, scale of 0-10” value (maize [8]; [15]) was 0 and the “ORYSA (rice) damage, scale of 0-10” value (rice [9]; [15]) was 0. The “TRZAW (wheat) damage, scale of 0-10” value (wheat [10]; [15]) was 1, the “ABUTH (Abutilon theophrasti Medicus) herbicidal efficacy, scale of 0-10” value (shortened to “ABUTH … of 0-10”) [11, 16] was 6 and the “AESIN (Aeschynomene indica) herbicidal efficacy, scale of 0-10” value (“AESIN … of 0-10” below) (Aeschynomene indica [12]; [16]) was 9. The “IPOAN (Quamoclit pennata) herbicidal efficacy, scale of 0-10” value (“IPOAN … of 0-10” for short) (Quamoclit pennata [13]; [16]) was 4 and the “XANST (Xanthium strumarium) herbicidal efficacy, scale of 0-10” value (“XANST … of 0-10” below) (Xanthium strumarium [14]; [16]) was 9.
In the case of COC(=O)c1nc(C2CC(Br)=NO2)cc(N)c1Cl (centres unmarked) [Compound 33, methyl 4-amino-3-chloro-6-(3-bromo-4,5-dihydroisoxazol-5-yl)picolinate], the “PRE ZEAMX (maize), damage score” value (maize [1]; Table 4, 200 g/ha) is reported as 2, the “PRE ORYSA (rice), damage score” value (rice [2]; Table 4, 200 g/ha) is reported as 0 and the “PRE TRZAW (wheat), damage score” value (wheat [3]; Table 4, 200 g/ha) is reported as 0. The “PRE ABUTH” value ([4]; Table 4, 200 g/ha) was 6, the “PRE AESIN (Aeschynomene indica)” value (Aeschynomene indica [5]; Table 4, 200 g/ha) was 10 and the “PRE IPOAN (Quamoclit pennata)” value (Quamoclit pennata [6]; Table 4, 200 g/ha) was 6. The “PRE XANST (Xanthium strumarium)” value (Xanthium strumarium [7]; Table 4, 200 g/ha) was 10, the “ZEAMX (maize) damage, scale of 0-10” value (maize [8]; [15]) was 0 and the “ORYSA (rice) damage, scale of 0-10” value (rice [9]; [15]) was 0. For the same compound, the “TRZAW (wheat) damage, scale of 0-10” value (wheat [10]; [15]) was 0, the “ABUTH … of 0-10” value [11, 16] was 7 and the “AESIN … of 0-10” value (Aeschynomene indica [12]; [16]) was 9. For the same compound, the “IPOAN … of 0-10” value (Quamoclit pennata [13]; [16]) was 5 and the “XANST … of 0-10” value (Xanthium strumarium [14]; [16]) was 10.
COC(=O)c1nc(C2CC(C(F)(F)F)=NO2)cc(N)c1Cl (centres unmarked) [Compound 39, methyl 4-amino-3-chloro-6-(3-trifluoromethyl-4,5-dihydroisoxazol-5-yl)picolinate] was tested, and the “PRE ZEAMX (maize), damage score” value (maize [1]; Table 3, 200 g/ha) was 0, the “PRE ORYSA (rice), damage score” value (rice [2]; Table 3, 200 g/ha) was 1 and the “PRE TRZAW (wheat), damage score” value (wheat [3]; Table 3, 200 g/ha) was 0. For the same compound, the “PRE ABUTH” value ([4]; Table 3, 200 g/ha) was 4, the “PRE AESIN (Aeschynomene indica)” value (Aeschynomene indica [5]; Table 3, 200 g/ha) was 8 and the “PRE IPOAN (Quamoclit pennata)” value (Quamoclit pennata [6]; Table 3, 200 g/ha) was 6. The “PRE XANST (Xanthium strumarium)” value (Xanthium strumarium [7]; Table 3, 200 g/ha) was 6, the “ZEAMX (maize) damage, scale of 0-10” value (maize [8]; spray amount 200 g/ha, Table 5) was 0 and the “ORYSA (rice) damage, scale of 0-10” value (rice [9]; spray amount 200 g/ha, Table 5) was 0. For the same compound, the “TRZAW (wheat) damage, scale of 0-10” value (wheat [10]; spray amount 200 g/ha, Table 5) was 0, the “ABUTH … of 0-10” value ([11]; spray amount 200 g/ha, Table 5) was 3 and the “AESIN … of 0-10” value (Aeschynomene indica [12]; spray amount 200 g/ha, Table 5) was 10. For the same compound, the “IPOAN … of 0-10” value (Quamoclit pennata [13]; spray amount 200 g/ha, Table 5) was 4 and the “XANST … of 0-10” value (Xanthium strumarium [14]; spray amount 200 g/ha, Table 5) was 10.
With Nc1cc(C2CC(Cl)=NO2)nc(C(=O)Oc2ccccc2)c1Cl (centres unmarked) [Compound 94, phenyl 4-amino-3-chloro-6-(3-chloro-4,5-dihydroisoxazol-5-yl)picolinate] the “PRE ZEAMX (maize), damage score” value (maize [1]; Table 4, 200 g/ha) was 2, the “PRE ORYSA (rice), damage score” value (rice [2]; Table 4, 200 g/ha) was 7 and the “PRE TRZAW (wheat), damage score” value (wheat [3]; Table 4, 200 g/ha) was 0. The “PRE ABUTH” value ([4]; Table 4, 200 g/ha) was 10, the “PRE AESIN (Aeschynomene indica)” value (Aeschynomene indica [5]; Table 4, 200 g/ha) was 10 and the “PRE IPOAN (Quamoclit pennata)” value (Quamoclit pennata [6]; Table 4, 200 g/ha) was 10. The “PRE XANST (Xanthium strumarium)” value (Xanthium strumarium [7]; Table 4, 200 g/ha) was 10, the “ZEAMX (maize) damage, scale of 0-10” value (maize [8]; [15]) was 0 and the “ORYSA (rice) damage, scale of 0-10” value (rice [9]; [15]) was 3. The “TRZAW (wheat) damage, scale of 0-10” value (wheat [10]; [15]) was 0, the “ABUTH … of 0-10” value [11, 16] was 10 and the “AESIN … of 0-10” value (Aeschynomene indica [12]; [16]) was 10. For the same compound, the “IPOAN … of 0-10” value (Quamoclit pennata [13]; [16]) was 8 and the “XANST … of 0-10” value (Xanthium strumarium [14]; [16]) was 10.
